Laboratory results published in article PMC11673488, “Enzyme Inhibitory, Physicochemical, and Phytochemical Properties and Botanical Sources of Honey, Bee Pollen, Bee Bread, and Propolis Obtained from the Same Apiary” (Antioxidants, 2024).
Where a name gives a salt, the structure may show the parent alone.

What was measured:
Type in all cases: biochemical
[1] = test system: T1, adenosine deaminase (ADA); assay: ADA assay (Blum and Schwedt); details: inhibitor in […] ethanol; unreliable (extrapolated beyond highest tested […])
T1 construct: method of Blum and Schwedt
From the text: ADA assay (Blum and Schwedt) on adenosine deaminase (ADA)

lipase = molecular target: T2, lipase; assay: p-nitrophenyl caprate hydrolysis; details: substrate p-nitrophenyl caprate; inhibitor in […] ethanol
T2 construct: gene PNLIP; p-nitrophenyl caprate assay
From the text: p-nitrophenyl caprate hydrolysis on lipase

neuraminidase = molecular target: T3, neuraminidase; assay: neuraminidase assay (Myers et al.); details: inhibitor in […] ethanol
T3 construct: gene nanI; method of Myers et al
From the text: neuraminidase assay (Myers et al.) on neuraminidase

## CCCCCC[C@H]([C@H](C)O)n1cnc2c(N)ncnc21 [EHNA.HCl]
[1]
  Adenosine Deaminase / IC50 (mg/mL) *: 0.61 ± 0.05 mg/mL

## CCCCCCCCCCC[C@@H](C[C@@H]1OC(=O)[C@H]1CCCCCC)OC(=O)[C@H](CC(C)C)NC=O [Orlistat]
lipase
  Lipase / IC50 (mg/mL) *: 0.00245 ± 0.00010 mg/mL

## O=c1c(O)c(-c2ccc(O)c(O)c2)oc2cc(O)cc(O)c12 [Quercetin dihydrate]
neuraminidase
  Neuraminidase / IC50 (mg/mL) *: 0.00035 ± 0.00005 mg/mL
